Experimental data reported in US4579840A, “Method of blocking immune complex binding to immunoglobulin Fc receptors” (Immunetech Pharmaceuticals, priority 1983, dated 1986).
Ends that are not written are not given here. Peptide text beside a SMILES is read from it. * marks the point of attachment. Cbz = O=C(OCc1ccccc1)*

Key:
[1] = molecular target: T1, MONOCYTE/MACROPHAGE Fc Receptor IgE (Homo sapiens, UniProt P06734); assay: Rosette inhibition assay, monocyte/macrophage IgE Fc receptor; type: binding; details: human monocytes or U937; relative to intact monomeric myeloma IgE at equal concentration; NS = not significantly different from 0
T1 construct: the cells expressing surface Fc receptors formed rosettes; endogenous in cells; host or cells: fresh human monocytes or U937
T1 sequence (P06734 1-321): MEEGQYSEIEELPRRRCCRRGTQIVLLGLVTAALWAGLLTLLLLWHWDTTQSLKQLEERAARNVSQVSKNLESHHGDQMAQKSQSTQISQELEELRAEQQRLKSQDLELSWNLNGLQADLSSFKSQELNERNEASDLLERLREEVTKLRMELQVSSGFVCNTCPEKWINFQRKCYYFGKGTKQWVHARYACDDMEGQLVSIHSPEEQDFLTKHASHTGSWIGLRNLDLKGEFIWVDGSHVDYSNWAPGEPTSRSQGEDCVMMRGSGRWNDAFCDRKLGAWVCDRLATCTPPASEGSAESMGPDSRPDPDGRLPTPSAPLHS
Procedure: (§1) The Fc receptor blocking activity of the subject peptides was assessed using well established techniques and procedures. In particular, a rosette assay was employed which uses either monomeric, chemically or heat aggregated human IgG or IgE obtained from human myeloma sera. (Gonzalez-Molina, et al., J. Clin. Invest., 59, 616 (1977); Spiegelberg, et al. in Immunoassays: Clinical Laboratory Techniques for the 1980's (Alan R. Liss: New York, 1980), pp. 287-300). The IgG or IgE is then adsorbed to ox-erythrocytes which has been previously treated with trypsin and pyruvic aldehyde. Fresh human cell PMNs, monocytes and basophils from a patient with basophilic chronic myelogenous leukemia or human cell lines (RPMI-8866, and Daudi for lymphocyte Fc receptors and U937 for monocyte/macrophage Fc receptors) were then incubated in the presence or absence of inhibitors (monomeric IgG or IgE or peptides) at equal concentrations for fifteen minutes before addition of the indicator oxerythrocytes. In the absence of inhibitors, the cells expressing surface Fc receptors formed rosettes, clusters of three or more indicator erythrocytes that bound to the cells by virtue of exposed Fc regions on the erythrocyte surface. Addition of inhibitor myeloma proteins or inhibitor peptides produced a reproducable reduction of rosette formation, […], phosphate buffered isotonic saline, was used alone as control and then multiplying the calculated quotient by 100.
(§2) Table 1 presents the inhibition observed by representative peptide inhibitors calculated as a percentage of the inhibition observed with intact, monomeric myeloma proteins. Thus, 50 percent inhibition implys that the peptide was 50% as inhibitory as the intact myeloma protein to which it was compared.

[2] = molecular target: T2, LYMPHOCYTE Fc Receptor IgG (Homo sapiens, UniProt P31994); assay: Rosette inhibition assay, lymphocyte IgG Fc receptor; type: binding; details: RPMI-8866 and Daudi cell lines; relative to intact monomeric myeloma IgG at equal concentration; NS = not significantly different from 0
T2 construct: the cells expressing surface Fc receptors formed rosettes; endogenous in cells; host or cells: RPMI-8866 / Daudi
T2 sequence (P31994 43-310): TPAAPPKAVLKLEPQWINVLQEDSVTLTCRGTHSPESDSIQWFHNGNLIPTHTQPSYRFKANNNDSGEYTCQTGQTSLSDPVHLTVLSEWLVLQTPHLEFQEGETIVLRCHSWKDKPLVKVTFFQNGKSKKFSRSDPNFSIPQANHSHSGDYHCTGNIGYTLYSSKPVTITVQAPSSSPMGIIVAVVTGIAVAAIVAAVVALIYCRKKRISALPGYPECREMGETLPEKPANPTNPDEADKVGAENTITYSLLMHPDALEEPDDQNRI
Procedure: as §1, §2

[3] = molecular target: T3, LYMPHOCYTE Fc Receptor IgE (Homo sapiens, UniProt P06734); assay: Rosette inhibition assay, lymphocyte IgE Fc receptor; type: binding; details: RPMI-8866 and Daudi cell lines; relative to intact monomeric myeloma IgE at equal concentration; NS = not significantly different from 0
T3 construct: the cells expressing surface Fc receptors formed rosettes; endogenous in cells; host or cells: RPMI-8866 / Daudi
T3 sequence (P06734 1-321): T1 sequence (P06734 1-321)
Procedure: as §1, §2

[4] = molecular target: T4, BASOPHIL Fc Receptor IgE (Homo sapiens, UniProt P12319); assay: Rosette inhibition assay, basophil IgE Fc receptor; type: binding; details: basophils from a patient with basophilic chronic myelogenous leukemia; relative to monomeric myeloma IgE; NS = not significantly different from 0
T4 construct: the cells expressing surface Fc receptors formed rosettes; endogenous in cells; host or cells: basophils of a patient with basophilic chronic myelogenous leukemia
T4 sequence (P12319 26-257): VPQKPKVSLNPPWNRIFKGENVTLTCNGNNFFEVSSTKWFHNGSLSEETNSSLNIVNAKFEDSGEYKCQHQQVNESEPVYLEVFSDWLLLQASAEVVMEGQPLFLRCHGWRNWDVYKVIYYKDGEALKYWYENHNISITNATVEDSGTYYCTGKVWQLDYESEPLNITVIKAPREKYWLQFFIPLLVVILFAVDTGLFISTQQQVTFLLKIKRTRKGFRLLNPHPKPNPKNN
T4 sequence (Q01362 1-244 partner): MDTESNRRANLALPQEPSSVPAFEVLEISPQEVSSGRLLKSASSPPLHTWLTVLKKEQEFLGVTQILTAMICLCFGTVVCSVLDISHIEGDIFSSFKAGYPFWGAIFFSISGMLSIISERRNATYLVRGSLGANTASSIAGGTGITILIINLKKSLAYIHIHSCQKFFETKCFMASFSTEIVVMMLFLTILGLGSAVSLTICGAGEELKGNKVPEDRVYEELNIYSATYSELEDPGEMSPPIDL
T4 sequence (P30273 19-86 partner): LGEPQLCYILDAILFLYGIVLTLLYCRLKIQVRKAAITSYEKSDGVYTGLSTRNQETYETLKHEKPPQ
Procedure: as §1, §2

[5] = molecular target: C1q Fc receptor (Homo sapiens, UniProt P02745+P02746+P02747); details: peptides adsorbed to erythrocytes; Johnson and Thames 1975, Boackle et al. 1979; cited from earlier work
[6] = molecular target: C1 (Homo sapiens, UniProt P02745+P02746+P02747); details: Prystowsky et al. 1981, Lukas et al. 1981; cited from earlier work
Sequence of C1 (P02745 23-245): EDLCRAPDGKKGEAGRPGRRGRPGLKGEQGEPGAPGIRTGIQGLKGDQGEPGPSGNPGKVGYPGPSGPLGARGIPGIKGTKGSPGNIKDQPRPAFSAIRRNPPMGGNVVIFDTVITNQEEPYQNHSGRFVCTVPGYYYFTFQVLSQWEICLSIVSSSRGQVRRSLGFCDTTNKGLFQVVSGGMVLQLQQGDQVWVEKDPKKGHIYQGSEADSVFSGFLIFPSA
Sequence of C1 (P02746 28-253): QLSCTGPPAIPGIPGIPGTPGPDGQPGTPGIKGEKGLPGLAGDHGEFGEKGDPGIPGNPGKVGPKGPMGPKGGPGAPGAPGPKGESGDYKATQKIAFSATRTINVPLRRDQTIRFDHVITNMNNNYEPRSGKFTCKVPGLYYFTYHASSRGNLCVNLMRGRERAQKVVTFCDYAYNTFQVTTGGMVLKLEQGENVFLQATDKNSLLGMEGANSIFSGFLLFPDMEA
Sequence of C1 (P02747 29-245): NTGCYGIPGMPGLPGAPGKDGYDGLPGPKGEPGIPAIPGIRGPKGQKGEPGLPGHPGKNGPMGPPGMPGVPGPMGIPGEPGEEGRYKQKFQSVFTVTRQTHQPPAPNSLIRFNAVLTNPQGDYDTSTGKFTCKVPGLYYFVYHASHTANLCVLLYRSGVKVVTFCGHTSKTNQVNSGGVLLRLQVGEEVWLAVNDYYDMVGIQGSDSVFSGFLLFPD
Sequence of C1 (P00736 18-705 partner): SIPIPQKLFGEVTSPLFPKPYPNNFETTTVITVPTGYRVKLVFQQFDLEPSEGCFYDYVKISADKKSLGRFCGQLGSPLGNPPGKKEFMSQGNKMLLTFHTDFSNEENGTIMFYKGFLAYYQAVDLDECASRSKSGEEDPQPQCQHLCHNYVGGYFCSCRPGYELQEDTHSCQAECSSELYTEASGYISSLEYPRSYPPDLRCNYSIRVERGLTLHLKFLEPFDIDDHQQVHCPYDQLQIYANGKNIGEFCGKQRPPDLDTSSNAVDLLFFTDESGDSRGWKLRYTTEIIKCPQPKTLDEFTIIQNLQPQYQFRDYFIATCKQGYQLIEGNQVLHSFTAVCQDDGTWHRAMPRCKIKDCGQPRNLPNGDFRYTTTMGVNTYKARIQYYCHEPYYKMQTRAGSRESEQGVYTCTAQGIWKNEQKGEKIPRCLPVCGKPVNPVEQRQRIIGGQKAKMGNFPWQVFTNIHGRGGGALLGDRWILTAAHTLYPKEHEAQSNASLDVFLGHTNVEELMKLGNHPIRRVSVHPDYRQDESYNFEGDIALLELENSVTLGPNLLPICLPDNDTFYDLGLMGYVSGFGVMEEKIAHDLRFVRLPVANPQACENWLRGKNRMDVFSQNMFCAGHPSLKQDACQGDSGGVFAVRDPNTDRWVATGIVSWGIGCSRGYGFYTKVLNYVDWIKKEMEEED
Sequence of C1 (P09871 16-688 partner): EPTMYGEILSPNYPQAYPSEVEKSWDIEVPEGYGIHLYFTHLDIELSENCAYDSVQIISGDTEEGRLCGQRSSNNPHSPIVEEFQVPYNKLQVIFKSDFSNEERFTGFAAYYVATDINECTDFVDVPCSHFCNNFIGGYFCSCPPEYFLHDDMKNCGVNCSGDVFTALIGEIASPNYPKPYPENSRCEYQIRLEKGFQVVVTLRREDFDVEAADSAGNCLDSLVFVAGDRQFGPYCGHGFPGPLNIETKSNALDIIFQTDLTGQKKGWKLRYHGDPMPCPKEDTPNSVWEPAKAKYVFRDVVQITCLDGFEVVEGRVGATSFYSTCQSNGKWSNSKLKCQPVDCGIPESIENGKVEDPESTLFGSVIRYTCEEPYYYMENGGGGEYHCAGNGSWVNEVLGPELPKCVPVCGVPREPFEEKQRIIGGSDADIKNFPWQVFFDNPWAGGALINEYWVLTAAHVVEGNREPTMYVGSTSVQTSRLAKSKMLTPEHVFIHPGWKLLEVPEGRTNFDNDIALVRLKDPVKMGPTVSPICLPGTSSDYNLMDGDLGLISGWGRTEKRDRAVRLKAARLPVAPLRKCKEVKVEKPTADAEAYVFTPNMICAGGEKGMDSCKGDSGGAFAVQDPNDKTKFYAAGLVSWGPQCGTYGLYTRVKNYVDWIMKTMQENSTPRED

Sequence of C1q Fc receptor (P02745 23-245): as the sequence (P02745 23-245) above
Sequence of C1q Fc receptor (P02746 28-253): as the sequence (P02746 28-253) above
Sequence of C1q Fc receptor (P02747 29-245): as the sequence (P02747 29-245) above
Sequence of C1q Fc receptor (P00736 18-705 partner): as the sequence (P00736 18-705 partner) above
Sequence of C1q Fc receptor (P09871 16-688 partner): as the sequence (P09871 16-688 partner) above

Rosette inhibition expressed as percent inhibition by monomeric IgE; monocyte/macrophage Fc receptor, IgE [1] [%]	Rosette inhibition expressed as percent inhibition by monomeric IgG; lymphocyte Fc receptor, IgG [2] [%]	Rosette inhibition expressed as percent inhibition by monomeric IgE; basophil Fc receptor, IgE [4]	Compound	complement activating ability (C1q-mediated cell lysis) [5]	also measured
103	92	~ 130%	PDARHSTTQPR [Pro--Asp--Ala--Arg--His--Ser--Thr--Thr--Gln--Pro--Arg]		Rosette inhibition expressed as percent inhibition by monomeric IgE; lymphocyte Fc receptor, IgE [3]: 100%
			TrpTyrValAspGly (WYVDG; printed: TrpTyrValAspGly)	less active	
			Val-Gln-Val-His-Asn-Ala-Lys-Thr-Lys-Pro-Arg-OH (VQVHNAKTKPR-OH)		inhibition of C1-mediated hemolysis [6]: approximately as active as inhibitors as intact monomeric IgG
			Tyr-Glu-Ala-Gly (YEAG; printed: Tyr-Glu-Ala-Gly)	inactive	
			Ac-Phe-Asn-Trp-Tyr-Val (Ac-FNWYV)		inhibition of C1-mediated hemolysis [6]: less active
			ZAsnTrpTyrVal (Cbz-NWYV)	less active	
		106%	NCCCC[C@H](NC(=O)[C@H](CCC(N)=O)NC(=O)[C@@H](N)CCC(=O)O)C(=O)N[C@@H](CC(=O)O)C(=O)O [Glu--Gln--Lys--Asp] (H-EQKD-OH)		
87	95	101%	PDARHS [Pro--Asp--Ala--Arg--His--Ser, Pro-Asp-Ala-Arg-His-Ser]		Rosette inhibition expressed as percent inhibition by monomeric IgE; lymphocyte Fc receptor, IgE [3]: 98%
			VHEAKAKPGR	less active	
95	34	100%	TVLHQNWLDGK		Rosette inhibition expressed as percent inhibition by monomeric IgE; lymphocyte Fc receptor, IgE [3]: 95%
33	29	89%	YSKLTVDKSR [reference compound]		
		74%	DKSRAQQGN [Asp--Lys--Ser--Arg--Ala--Gln--Gln--Gly--Asn]		
48		37%	DSNPR [Asp--Ser--Asn--Pro--Arg]		
	16	94%	NCCCC[C@H](NC(=O)[C@H](CO)NC(=O)[C@H](CCCCN)NC(=O)[C@@H](N)CC(=O)O)C(=O)O [Asp--Lys--Ser--Lys] (H-DKSK-OH)		
			KFEWYVEGVE	less active	
			KFDAYVDG	less active	

Rosette inhibition expressed as percent inhibition by monomeric IgE; monocyte/macrophage Fc receptor, IgE [1] [%]	Rosette inhibition expressed as percent inhibition by monomeric IgG; lymphocyte Fc receptor, IgG [2] [%]	Rosette inhibition expressed as percent inhibition by monomeric IgE; basophil Fc receptor, IgE [4]	Compound	complement activating ability (C1q-mediated cell lysis) [5]	also measured
			EWYERG	less active	
55	94	89%	CC(=O)N[C@@H](CCC(N)=O)C(=O)N1CCC[C@H]1C(=O)N[C@@H](CCC(=O)O)C(=O)N[C@@H](CC(N)=O)C(=O)O [Ac--Gln--Pro--Glu--Asn, Ac-Gln-Pro-Glu-Asn] (Ac-QPEN-OH)		
			KADWYVDG	about as effective in activating C1q-mediated cell lysis as immune complexes formed by heat aggregated IgG	
87	84	133%	TISKAKGQPR		Rosette inhibition expressed as percent inhibition by monomeric IgE; lymphocyte Fc receptor, IgE [3]: 106%
			KFDWAVDG	less active	
			KYDWYVDG	less active	
			YVEWGERG	less active	
			TyrGluArgGly (YERG; printed: TyrGluArgGly)	less active	
			YDYYVDG	less active	
			ZValGluTrpGly (Cbz-VEWG)	less active	
			Trp-Leu	inactive	
58	36	80%	TTQPR [Thr--Thr--Gln--Pro--Arg]		
20	49	41%	C[C@H](NC(=O)[C@H](CCCNC(=N)N)NC(=O)[C@@H](N)[C@@H](C)O)C(=O)N[C@@H](CCC(=O)O)C(=O)O [Thr--Arg--Ala--Glu, Thr-Arg-Ala-Glu] (H-TRAE-OH)		
87	100	110%	RSTTKTSGPR		Rosette inhibition expressed as percent inhibition by monomeric IgE; lymphocyte Fc receptor, IgE [3]: 87%
38	86	89%	N=C(N)NCCC[C@H](NC(=O)[C@H](CO)NC(=O)[C@H](CCCCN)NC(=O)[C@@H](N)CC(=O)O)C(=O)O [Asp--Lys--Ser--Arg, Asp-Lys-Ser-Arg] (H-DKSR-OH)		Rosette inhibition expressed as percent inhibition by monomeric IgE; lymphocyte Fc receptor, IgE [3]: 23%

Compound	Rosette inhibition expressed as percent inhibition by monomeric IgE; monocyte/macrophage Fc receptor, IgE [1] [%]	Rosette inhibition expressed as percent inhibition by monomeric IgG; lymphocyte Fc receptor, IgG [2] [%]	Rosette inhibition expressed as percent inhibition by monomeric IgE; basophil Fc receptor, IgE [4]	complement activating ability (C1q-mediated cell lysis) [5]	also measured
SVMHEALHNHYTQK [Ser--Val--Met--His--Glu--Ala--Leu--His--Asn--His--Tyr--Thr--Gln--Lys]	28		74%		
TRAEAEQKD [Thr--Arg--Ala--Glu--Ala--Glu--Gln--Lys--Asp]	21		108%		
